Patent US7638553B2, “Hydroxamates, their manufacture and use as pharmaceutical agents” (Hoffmann-La Roche Inc., priority 2004, dated 2009)

Experiments:
HT-29 cells = experiment: MTT assay on HT-29 human colon carcinoma cell line; format: cell-based; details: MTT assay after 5 days, read-out: IC90 HT29
Method: To show the activity of the compounds according to this invention, their effects on a human colon carcinoma cell line was evaluated using a standard MTT-assay. MTT (3-(4,5-dimethylthiazol-2-yl)-2,5-diphenyl tetrazolium bromide) is widely used for the quantitative determination of cytotoxic effects or in vitro chemosensitivity of tumor cells. The assay is based on the cleavage of the yellow tetrazolium salt (MTT) to purple formazan crystals by metabolic active cells. For details, see Rubinstein, L. V., et al., J. Natl. Cancer Inst. 82 (1990) 1113-1118.
We proceeded as follows: HT-29 cells (human colon carcinoma cell line, ATCC-No. HTB-38) were cultivated in RPMI 1640 medium with GlutaMAX™ I (Invitrogen, Cat-No. 61870-010), 2.5% fetal calf serum (FCS, Sigma Cat-No. F4135 (FBS)), 2 mM glutamine, 100 units/ml penicillin, 100 μg/ml streptomycin (=Pen/Strep from Invitrogen Cat. No. 15140). For the assay the cells were seeded in 384 well plates, 900 cells per well, in the same medium. At the next day, the compounds (dissolved 10 mM in DMSO) were added in various concentrations ranging from 30 μM to 1.5 nM. After 5 days, the MTT assay was done mainly according to the instructions of the manufacturer (Cell proliferation kit I, MTT, from Roche Molecular Biochemicals). In brief: MTT labeling reagent was added to a final concentration of 0.5 mg/ml, added and incubated for 4 hrs at 37° C., 5% CO2. During this incubation time purple formazan crystals are formed. After addition of the solubilization solution (20% Sodium Dodecyl Sulfate (SDS) in 0.02 M HCl) the plates were incubated overnight at 37° C., 5% CO2. After careful mixing, the plates were measured in Victor 2 (scanning multiwell spectrophotometer, Wallac) at 550 nm.
A decrease in number of living cells results in a decrease in the total metabolic activity in the sample. The decrease directly correlates to the amount of purple colour resulting from the solubilization of the purple formazan crystals. Determination of IC90 was done using XL-fit (XLfit software (ID Business Solution Ltd., Guilford, Surrey, UK)).

recombinant HDAC-1 = molecular target: T1, recombinant HDAC-1 (Homo sapiens, UniProt Q13547); experiment: HDAC biochemical quench assay; details: recombinant HDAC-1 purified from HEK 293 cells; 1 μM peptide substrate, 90 min at room temperature
T1 construct: made in house; host or cells: HEK 293 cells (ATCC-No. CRL 1573)
T1 sequence (Q13547 whole entry, species assumed): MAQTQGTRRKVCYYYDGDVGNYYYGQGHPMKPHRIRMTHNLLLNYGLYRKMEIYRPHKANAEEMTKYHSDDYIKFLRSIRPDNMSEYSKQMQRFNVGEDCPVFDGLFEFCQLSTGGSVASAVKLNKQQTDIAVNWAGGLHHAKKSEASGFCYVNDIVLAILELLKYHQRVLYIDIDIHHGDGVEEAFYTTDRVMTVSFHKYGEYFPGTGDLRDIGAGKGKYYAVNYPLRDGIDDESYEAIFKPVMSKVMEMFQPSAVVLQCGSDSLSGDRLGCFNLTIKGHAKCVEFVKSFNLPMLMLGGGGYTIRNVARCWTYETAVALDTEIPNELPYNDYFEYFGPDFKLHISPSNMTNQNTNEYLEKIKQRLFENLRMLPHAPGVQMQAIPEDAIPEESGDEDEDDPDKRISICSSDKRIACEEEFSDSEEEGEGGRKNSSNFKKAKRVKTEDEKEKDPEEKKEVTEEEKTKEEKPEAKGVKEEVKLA
Excerpt: The function of histone deacetylase (HDAC) is the deacetylation of lysines in e.g. histone H4. A peptide of 17 amino acids derived from histone H4 was labeled with tetramethylrhodamine (TAMRA, fluorophore, Invitrogen) at the C-terminus and QSY-7™ (quencher dye, Invitrogen) at the N-terminus and was used as a substrate (TAMRA—first 17 aa of histone H4—QSY7). Following deacetylation by HDAC, the enzyme Lys C is able to cleave the peptide after lysine. […] Inhibition of HDAC by compounds results in low signals because Lys C could not cleave the substrate and the quench effect persists.
For dose response curves, 10 concentrations were diluted 1:3 starting at 30 μM. 10 μl compound dilution were put into each well of a 384 well plate. 10 μl HDAC were added (recombinant HDAC-1 purified from HEK 293 cells (human embryonic kidney cell line transformed by Adenovirus 5 fragments, ATCC-No. CRL 1573); enzyme activity has to be assessed for each preparation). 10 μl peptide substrate was added (1 μM final concentration, derived from 1 mM stock solution diluted 1:1000 in test buffer). After 90 min incubation at room temperature, the reaction was stopped by addition of 20 μl test buffer including 3 μg/ml Lys C and 0.075% Sodium Dodecyl Sulfate (SDS). After overnight incubation the fluorescence signal of TAMRA was measured (Victor 2 from Wallac, absorption 544 nm, emission 590 nm). […]

Row | SMILES | IC90 (HT-29 cells) | IC50 (recombinant HDAC-1)
1 | CC(NC(=O)c1ccc(C(=O)NO)s1)c1ccc(SC(F)(F)F)cc1 (centres unmarked) [Example 1, Thiophene-2,5-dicarboxylic acid 2-hydroxyamide 5-{[1-(4-trifluoromethylsulfanyl-phenyl)-ethyl]-amide}] | 340 nM | –
2 | CC(NC(=O)c1ccc(C(=O)NO)s1)c1cccc(SC(F)(F)F)c1 (centres unmarked) [Example 2-2, Thiophene-2,5-dicarboxylic acid 2-hydroxyamide 5-{[1-(3-trifluoromethylsulfanyl-phenyl)-ethyl]-amide}] | 210 nM | –
3 | CC(NC(=O)c1ccc(C(=O)NO)s1)c1ccc(OC(F)(F)F)cc1 (centres unmarked) [Example 2-1, Thiophene-2,5-dicarboxylic acid 2-hydroxyamide 5-{[1-(4-trifluoromethoxy-phenyl)-ethyl]-amide}] | – | 3.11 nM

Continued, values first:

Row | IC90 (HT-29 cells) | IC50 (recombinant HDAC-1) | SMILES
4 | – | 2.26 nM | CSc1ccc(C(C)NC(=O)c2ccc(C(=O)NO)s2)cc1 (centres unmarked) [Example 2-3, Thiophene-2,5-dicarboxylic acid 2-hydroxyamide 5-{[1-(4-methylsulfanyl-phenyl)-ethyl]-amide}]
5 | 220 nM | – | CC(NC(=O)c1ccc(C(=O)NO)s1)c1cccc(OC(F)(F)F)c1 (centres unmarked) [Example 3, Thiophene-2,5-dicarboxylic acid 2-hydroxyamide 5-{[1-(3-trifluoromethoxy-phenyl)-ethyl]-amide}]
